# Measurements reported in US8436178B2, “Imidazoquinolines with immuno-modulating properties” (AstraZeneca AB, priority 2007, dated 2013).
# pEC50: −log10 of the molar value. Structures can show the parent of a compound that is named as a salt.
# Target: T1, human TLR7 (Homo sapiens, UniProt Q9NYK1)
# T1 construct: expressed in transfected cells; host or cells: HEK293 cell line stably expressing the pNiFty2-SEAP reporter plasmid; TLR7 in pUNO vector, blasticidin selection
# T1 sequence (Q9NYK1 27-1049): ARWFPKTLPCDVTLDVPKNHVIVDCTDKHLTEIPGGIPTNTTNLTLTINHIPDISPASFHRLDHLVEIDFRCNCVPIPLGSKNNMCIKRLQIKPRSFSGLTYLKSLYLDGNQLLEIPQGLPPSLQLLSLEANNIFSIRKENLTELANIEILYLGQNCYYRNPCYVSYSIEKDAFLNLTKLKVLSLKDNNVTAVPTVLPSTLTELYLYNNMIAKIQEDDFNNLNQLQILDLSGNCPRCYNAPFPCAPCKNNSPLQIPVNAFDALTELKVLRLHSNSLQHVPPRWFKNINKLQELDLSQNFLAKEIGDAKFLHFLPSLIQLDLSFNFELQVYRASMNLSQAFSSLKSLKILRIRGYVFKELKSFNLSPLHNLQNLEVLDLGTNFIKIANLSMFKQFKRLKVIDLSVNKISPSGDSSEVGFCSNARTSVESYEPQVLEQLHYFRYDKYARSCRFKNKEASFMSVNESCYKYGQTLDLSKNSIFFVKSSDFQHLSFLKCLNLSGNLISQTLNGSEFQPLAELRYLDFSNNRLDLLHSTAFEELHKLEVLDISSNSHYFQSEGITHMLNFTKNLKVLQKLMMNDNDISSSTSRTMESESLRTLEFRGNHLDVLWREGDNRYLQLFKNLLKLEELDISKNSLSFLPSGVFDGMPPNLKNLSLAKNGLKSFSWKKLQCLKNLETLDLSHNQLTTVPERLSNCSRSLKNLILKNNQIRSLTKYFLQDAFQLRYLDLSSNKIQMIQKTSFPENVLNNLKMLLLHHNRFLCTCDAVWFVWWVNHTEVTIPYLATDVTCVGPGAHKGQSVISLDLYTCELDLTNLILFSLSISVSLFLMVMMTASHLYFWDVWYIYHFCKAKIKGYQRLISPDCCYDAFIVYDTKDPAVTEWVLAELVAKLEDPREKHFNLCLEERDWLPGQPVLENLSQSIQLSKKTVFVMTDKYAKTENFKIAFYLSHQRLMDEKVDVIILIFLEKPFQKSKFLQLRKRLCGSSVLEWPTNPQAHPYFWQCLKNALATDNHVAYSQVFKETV
# Experiment: Human TLR7 assay (SEAP reporter in HEK293 cells)
# Assay type: cell-based
# Details: SEAP induction in HEK293 cells expressing human TLR7, overnight incubation at 37° C., 0.1% DMSO
row,pEC50,SMILES
1,6.30,"CCCCc1nc2c(N)nc3ccccc3c2n1CCCN(Cc1ccc(CC(=O)OC)cc1)C(=O)CN1CCCN(S(C)(=O)=O)CC1 [Example 68, Methyl 2-(4-((N-(3-(4-amino-2-butyl-1H-imidazo[4,5-c]quinolin-1-yl)propyl)-2-(4-(methylsulfonyl)-1,4-diazepan-1-yl)acetamido)methyl)phenyl)acetate]"
2,6.20,"CCCCc1nc2c(N)nc3ccccc3c2n1CCCN(Cc1cccc(CC(=O)OC)c1)C(=O)CN1CCCN(S(C)(=O)=O)CC1 [Example 65, Methyl 2-(3-((N-(3-(4-amino-2-butyl-1H-imidazo[4,5-c]quinolin-1-yl)propyl)-2-(4-(methylsulfonyl)-1,4-diazepan-1-yl)acetamido)methyl)phenyl)acetate]"
3,7.10,"CCCCc1nc2c(N)nc3ccccc3c2n1CCCN(Cc1cccc(CC(=O)OC)c1)C(=O)CN1CCCCCC1 [Example 60, Methyl 2-(3-((N-(3-(4-amino-2-butyl-1H-imidazo[4,5-c]quinolin-1-yl)propyl)-2-(azepan-1-yl)acetamido)methyl)phenyl)acetate]"

# Second part, the compound before the results:
row,SMILES,pEC50
1,"CCCCc1nc2c(N)nc3ccccc3c2n1CCCN(Cc1ccc(CC(=O)OC)cc1)C(=O)CN1CCN(C)CC1 [Example 10, Methyl 2-(4-((N-(3-(4-amino-2-butyl-1H-imidazo[4,5-c]quinolin-1-yl)propyl)-2-(4-methylpiperazin-1-yl)acetamido)methyl)phenyl)acetate]",6.30
2,"CCCCc1nc2c(N)nc3ccccc3c2n1CCCN(Cc1ccc(CC(=O)OC)cc1)C(=O)CN1CCN(c2ncccn2)CC1 [Example 21, Methyl 2-(4-((N-(3-(4-amino-2-butyl-1H-imidazo[4,5-c]quinolin-1-yl)propyl)-2-(4-(pyrimidin-2-yl)piperazin-1-yl)acetamido)methyl)phenyl)acetate]",6.20
3,"CCCCc1nc2c(N)nc3ccccc3c2n1CCCN(Cc1ccc(CC(=O)OC)cc1)C(=O)CN1CCC(NC(=O)OC(C)(C)C)CC1 [Example 25, Methyl 2-(4-((N-(3-(4-amino-2-butyl-1H-imidazo[4,5-c]quinolin-1-yl)propyl)-2-(4-(tert-butoxycarbonylamino)piperidin-1-yl)acetamido)methyl)phenyl)acetate]",6.70
4,"CCCCc1nc2c(N)nc3ccccc3c2n1CCCN(Cc1cccc(CC(=O)OC)c1)C(=O)CN1CCN(CCOC)CC1 [Example 57, Methyl 2-(3-((N-(3-(4-amino-2-butyl-1H-imidazo[4,5-c]quinolin-1-yl)propyl)-2-(4-(2-methoxyethyl)piperazin-1-yl)acetamido)methyl)phenyl)acetate]",7.30
5,"CCCCc1nc2c(N)nc3ccccc3c2n1CCCN(Cc1cccc(CC(=O)OC)c1)C(=O)CN(C)C1CCOCC1 [Example 43, Methyl 2-(3-((N-(3-(4-amino-2-butyl-1H-imidazo[4,5-c]quinolin-1-yl)propyl)-2-(methyl(tetrahydro-2H-pyran-4-yl)amino)acetamido)methyl)phenyl)acetate]",6.90
6,"COCCc1nc2c(N)nc3ccccc3c2n1CCCN(Cc1ccc(CC(=O)OC)cc1)C(=O)CN(C)CCO [Example 38, Methyl 2-(4-((N-(3-(4-amino-2-(2-methoxyethyl)-1H-imidazo[4,5-c]quinolin-1-yl)propyl)-2-((2-hydroxyethyl)(methyl)amino)acetamido)methyl)phenyl)acetate disaccharin salt]",5.80
7,"CCOCc1nc2c(N)nc3ccccc3c2n1CCCN(Cc1cccc(CC(=O)OC)c1)C(=O)CN(C)C [Example 7, Methyl 2-(3-((N-(3-(4-amino-2-(ethoxymethyl)-1H-imidazo[4,5-c]quinolin-1-yl)propyl)-2-(dimethylamino)acetamido)methyl)phenyl)acetate]",6.40
8,"CCCCc1nc2c(N)nc3ccccc3c2n1CCCN(CCCN1CCOCC1)Cc1cccc(CC(=O)OC)c1 [Example 12, Methyl 2-(3-(((3-(4-amino-2-butyl-1H-imidazo[4,5-c]quinolin-1-yl)propyl)(3-morpholinopropyl)amino)methyl)phenyl)acetate]",6.60
